# Columns and labels:
# Rattus norvegicus [1] = assay: Ratio of urinary excretion value (Na+ concentration) in treated rats to that in control rats, at a peroral dose of 6.25 mg/Kg; format: functional, Urine
# Rattus norvegicus [2] = assay: Serum creatinine concentration measured after intraperitoneal administration of 10 mg/kg of compound to rats(vehicle 2.89+/-0.30); format: functional
# Rattus norvegicus [3] = assay: Effect on urinary excretion potassium and sodium after oral administration of 12.5 mg/kg to rats(potassium and sodium excretion in control rat is 0.175+/-0.014); format: functional, Urine
# Rattus norvegicus [4] = assay: Ratio of urinary excretion value (urinary volume) in treated rats to that in control rats, at a peroral dose of 6.25 mg/Kg; format: functional, Urine
# Rattus norvegicus [5] = assay: Urea nitrogen concentration measured after intraperitoneal administration of 10 mg/kg of compound to rats(vehicle 93.6+/-8.6); format: functional
# Rattus norvegicus [6] = assay: Percent inhibition of serum creatinine by the compound given as ratio of Cr value in treated to vehicle treated ones after intraperitoneal administration of 10 mg/kg of compound to rats(vehicle 2.89+/-0.30); format: functional; details: ip
# Rattus norvegicus [7] = assay: Ratio of urinary excretion value (urinary volume) in treated rats to that in control rats, at a peroral dose of 12.5 mg/Kg; format: functional, Urine
# Rattus norvegicus [8] = assay: Oral diuretic activity was measured after oral administration of 12.5 mg/kg to rats(control volume is 0.94+/-0.03); format: functional, Urine
# Rattus norvegicus [9] = assay: Ratio of sodium ion/potassium ion concentration in treated rats to that in control rats, at a peroral dose of 12.5 mg/Kg; format: functional
# Rattus norvegicus [10] = assay: Percent inhibition of Urea nitrogen by the compound given as ratio of UN value in treated to vehicle treated ones after intraperitoneal administration of 10 mg/kg of compound to rats(vehicle 93.6+/-8.6); format: functional; details: ip
# Rattus norvegicus [11] = assay: Ratio of urinary excretion value (Na+ concentration) in treated rats to that in control rats, at a peroral dose of 12.5 mg/Kg; format: functional, Urine
# Adenosine A2 receptor [12] = biological target: T1, Adenosine A2 receptor (Rattus norvegicus, UniProt P29276+P30543)
# Description: Binding affinity towards adenosine A2 receptor in rat striatal membranes using N-[3H]-ethyladenosin-5''-uronamide as radioligand
# Adenosine A2 receptor [13] = biological target: T1, Adenosine A2 receptor; remark: listed apart in the source
# Rattus norvegicus [14] = assay: Percent inhibition of serum creatinine by the compound given as ratio of Cr value in treated to vehicle treated ones after intraperitoneal administration of 1 mg/kg of compound to rats(vehicle 3.62+/-0.52); format: functional; details: ip
# Rattus norvegicus [15] = assay: Percent inhibition of Urea nitrogen by the compound given as ratio of UN value in treated to vehicle treated ones after intraperitoneal administration of 10 mg/kg of compound to rats(vehicle 129.1+/-14.5); format: functional; details: ip
# Rattus norvegicus [16] = assay: Ratio of sodium ion/potassium ion concentration in treated rats to that in control rats, at a peroral dose of 1.6 mg/Kg; format: functional
# Rattus norvegicus [17] = assay: Effect on urinary excretion potassium and sodium after oral administration of 1.6 mg/kg to rats(potassium and sodium excretion in control rat is 0.147+/-0.015); format: functional, Urine
# Rattus norvegicus [18] = assay: Urea nitrogen concentration measured after intraperitoneal administration of 1 mg/kg of compound to rats(vehicle 105.2+/-14.9); format: functional
# Rattus norvegicus [19] = assay: Urea nitrogen concentration measured after intraperitoneal administration of 10 mg/kg of compound to rats(vehicle 129.1+/-14.5); format: functional
# Rattus norvegicus [20] = assay: Effect on urinary excretion potassium and sodium after oral administration of 0.4 mg/kg to rats(potassium and sodium excretion in control rat is 0.191+/-0.020); format: functional, Urine
# Rattus norvegicus [21] = assay: Ratio of urinary excretion value (Na+ concentration) in treated rats to that in control rats, at a peroral dose of 1.6 mg/Kg; format: functional, Urine
# Rattus norvegicus [22] = assay: Ratio of urinary excretion value (Na+ concentration) in treated rats to that in control rats, at a peroral dose of 0.4 mg/Kg; format: functional, Urine
# Rattus norvegicus [23] = assay: Ratio of urinary excretion value (urinary volume) in treated rats to that in control rats, at a peroral dose of 0.4 mg/Kg; format: functional, Urine
# Rattus norvegicus [24] = assay: Oral diuretic activity was measured after oral administration of 1.6 mg/kg to rats(control volume is 0.96+/-0.09); format: functional, Urine
# Rattus norvegicus [25] = assay: Oral diuretic activity was measured after oral administration of 0.4 mg/kg to rats(control volume is 1.15+/-0.17); format: functional, Urine
# Rattus norvegicus [26] = assay: Percent inhibition of Urea nitrogen by the compound given as ratio of UN value in treated to vehicle treated ones after intraperitoneal administration of 1 mg/kg of compound to rats(vehicle 105.2+/-14.9); format: functional; details: ip
# Rattus norvegicus [27] = assay: Percent inhibition of serum creatinine by the compound given as ratio of Cr value in treated to vehicle treated ones after intraperitoneal administration of 10 mg/kg of compound to rats(vehicle 3.93+/-0.45); format: functional; details: ip
# Rattus norvegicus [28] = assay: Serum creatinine concentration measured after intraperitoneal administration of 10 mg/kg of compound to rats(vehicle 3.93+/-0.45); format: functional
# Rattus norvegicus [29] = assay: Ratio of sodium ion/potassium ion concentration in treated rats to that in control rats, at a peroral dose of 0.4 mg/Kg; format: functional
# Rattus norvegicus [30] = assay: Ratio of urinary excretion value (urinary volume) in treated rats to that in control rats, at a peroral dose of 1.6 mg/Kg; format: functional, Urine
# Rattus norvegicus [31] = assay: Serum creatinine concentration measured after intraperitoneal administration of 1 mg/kg of compound to rats(vehicle 3.62+/-0.52); format: functional
# Rattus norvegicus [32] = assay: Urea nitrogen concentration measured after intraperitoneal administration of 10 mg/kg of compound to rats(vehicle 150.7+/-3.4); format: functional
# Rattus norvegicus [33] = assay: Serum creatinine concentration measured after intraperitoneal administration of 10 mg/kg of compound to rats(vehicle 4.98+/-0.08); format: functional
# Rattus norvegicus [34] = assay: Percent inhibition of serum creatinine by the compound given as ratio of Cr value in treated to vehicle treated ones after intraperitoneal administration of 10 mg/kg of compound to rats(vehicle 4.98+/-0.08); format: functional; details: ip
# Rattus norvegicus [35] = assay: Ratio of urinary excretion value (Na+ concentration) in treated rats to that in control rats, at a peroral dose of 25 mg/Kg; format: functional, Urine
# Rattus norvegicus [36] = assay: Oral diuretic activity was measured after oral administration of 25 mg/kg to rats(control volume is 0.89+/-0.06); format: functional, Urine
# Rattus norvegicus [37] = assay: Percent inhibition of Urea nitrogen by the compound given as ratio of UN value in treated to vehicle treated ones after intraperitoneal administration of 10 mg/kg of compound to rats(vehicle 150.7+/-3.4); format: functional; details: ip
# Rattus norvegicus [38] = assay: Effect on urinary excretion potassium and sodium after oral administration of 25 mg/kg to rats(potassium and sodium excretion in control rat is […]+/-[…]); format: functional, Urine
# Rattus norvegicus [39] = assay: Ratio of urinary excretion value (urinary volume) in treated rats to that in control rats, at a peroral dose of 25 mg/Kg; format: functional, Urine
# Rattus norvegicus [40] = assay: Ratio of sodium ion/potassium ion concentration in treated rats to that in control rats, at a peroral dose of 25 mg/Kg; format: functional
# Adenosine receptor A1 = biological target: T2, Adenosine receptor A1 (Cavia porcellus, UniProt P47745)
# T2 sequence (P47745 whole entry): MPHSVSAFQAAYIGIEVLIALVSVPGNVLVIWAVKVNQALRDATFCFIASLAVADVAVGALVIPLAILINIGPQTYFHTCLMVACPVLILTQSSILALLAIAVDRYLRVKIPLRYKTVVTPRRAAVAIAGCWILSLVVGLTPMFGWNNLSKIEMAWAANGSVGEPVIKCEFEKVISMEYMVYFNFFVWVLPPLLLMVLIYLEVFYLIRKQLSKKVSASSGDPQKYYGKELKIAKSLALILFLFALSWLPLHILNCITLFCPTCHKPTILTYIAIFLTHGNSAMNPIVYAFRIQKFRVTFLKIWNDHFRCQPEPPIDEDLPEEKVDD
# Description: Binding affinity against adenosine A1 receptor in guinea pig forebrain membranes using N6-[3H]cyclohexyladenosine as radioligand
compound,measurement,setting,value
CCCn1c(=O)c2nc(-c3ccc(S(=O)(=O)N(C)CCN(C)C)cc3)[nH]c2n(CCC)c1=O,T/C,Rattus norvegicus [1],1.06
same,Cr,Rattus norvegicus [2],2.31 mg/dL
same,Na,Rattus norvegicus [3],0.21 m equiv 6hr-1 100g-1
same,T/C,Rattus norvegicus [4],1.17
same,UN,Rattus norvegicus [5],62.6 mg/dL
same,inhibition in vivo at 10 mg/kg,Rattus norvegicus [6],20%
same,T/C,Rattus norvegicus [7],1.64
same,Urine volume,Rattus norvegicus [8],1.54 ml 6hr-1 100g-1
same,Na+/K+,Rattus norvegicus [9],1.56
same,inhibition in vivo at 10 mg/kg,Rattus norvegicus [10],33%
same,T/C,Rattus norvegicus [11],1.78
same,Ki,Adenosine A2 receptor [12],15.5 nM
same,Ki,Adenosine A2 receptor [13],26 nM
CCCCn1c(=O)c2nc(C(C3CC3)C3CC3)[nH]c2n(CCCC)c1=O,inhibition in vivo at 1 mg/kg,Rattus norvegicus [14],0%
same,inhibition in vivo at 10 mg/kg,Rattus norvegicus [15],37%
same,Na+/K+,Rattus norvegicus [16],1.66
same,Na,Rattus norvegicus [17],0.282 m equiv 6hr-1 100g-1
same,UN,Rattus norvegicus [18],101.1 mg/dL
same,UN,Rattus norvegicus [19],81.1 mg/dL
same,Na,Rattus norvegicus [20],0.276 m equiv 6hr-1 100g-1
same,T/C,Rattus norvegicus [21],1.91
same,T/C,Rattus norvegicus [22],1.44
same,T/C,Rattus norvegicus [23],1.08
same,Urine volume,Rattus norvegicus [24],1.59 ml 6hr-1 100g-1
same,Urine volume,Rattus norvegicus [25],1.24 ml 6hr-1 100g-1
same,inhibition in vivo at 1 mg/kg,Rattus norvegicus [26],4%
same,inhibition in vivo at 10 mg/kg,Rattus norvegicus [27],41%
same,Cr,Rattus norvegicus [28],2.3 mg/dL
same,Na+/K+,Rattus norvegicus [29],1.45
same,T/C,Rattus norvegicus [30],1.66
same,Cr,Rattus norvegicus [31],3.63 mg/dL
same,Ki,Adenosine A2 receptor [13],440 nM
CCCn1c(=O)c2c(nc(C(C3CC3)C3CC3)n2CC(=O)O)n(CCC)c1=O,UN,Rattus norvegicus [32],145.5 mg/dL
same,Cr,Rattus norvegicus [33],4.79 mg/dL
same,inhibition in vivo at 10 mg/kg,Rattus norvegicus [34],4%
same,T/C,Rattus norvegicus [35],1.14
same,Urine volume,Rattus norvegicus [36],1.02 ml 6hr-1 100g-1
same,inhibition in vivo at 10 mg/kg,Rattus norvegicus [37],3%
same,Na,Rattus norvegicus [38],0.185 m equiv 6hr-1 100g-1
same,T/C,Rattus norvegicus [39],1.15
same,Na+/K+,Rattus norvegicus [40],0.95
same,Ki,Adenosine A2 receptor [13],> 100000 nM
same,Ki,Adenosine receptor A1,6900 nM
Nc1nc2ccc(Cl)cc2c2nc(-c3ccco3)nn12 [CGS-15943],T/C,Rattus norvegicus [35],1.46
same,T/C,Rattus norvegicus [39],1.02
same,Ki,Adenosine A2 receptor [12],3.3 nM
same,Na+/K+,Rattus norvegicus [40],1.07
same,Ki,Adenosine A2 receptor [13],0.73 nM
